{
  "source": "patent US7202085B2",
  "about": "“Control of gene expression in eukaryotic cells” (Calgene LLC, priority 1999, dated 2007)",
  "system": "VP16-TraR",
  "experiment": "Transient GUS reporter assay in carrot protoplasts with VP16-TraR effector and tra box reporter",
  "format": "cell-based, Agrobacterium tumefaciens",
  "details": "Table 8: TraA8(4X) +TraR",
  "text": "Carrot protoplasts were transfected with the TraA8 (4×)-GUS reporter construct with the 35S-VP16-TraR activator gene and tested for GUS induction by application of wild type AHL and the various AHL analogs described in Example 8.",
  "note": "“And” between values parts separate entries of the source, which are not always exact repeats. Equal values may be shown once.",
  "data": [
    {"smiles": "CCCCCCC(C(C)=O)C(=O)N[C@@H](CCO)C(=O)O", "note": "(stereo partly drawn) [compound 26, N-(α-Hexyl-b-ketobutanoyl)-(S)-homoserine]", "values": [
      {"measurement": "1, 2, 3 (replicate GUS activities at the lower concentration)", "setting": "5 μM", "value": "382.0 and 407.6 and 373.1"},
      {"measurement": "4, 5, 6 (replicate GUS activities at the higher concentration)", "setting": "12.5 μM", "value": "2145.8 and 1764.6 and 1527.0"},
      {"measurement": "1, 2, 3 (replicate GUS activities at the lower concentration)", "setting": "25 μM", "value": "1658.7 and 1300.7 and 1586.6"},
      {"measurement": "4, 5, 6 (replicate GUS activities at the higher concentration)", "setting": "75 μM", "value": "2585.3 and 3238.5 and 2815.8"}
    ]}
  ]
}
